The numbers were not newly measured in paper PMC4331071 (Clinical cancer research : an official journal of the …, 2013), which cites them from elsewhere.

The data set concerns GRP78.

As for WIFPWIQL, the “efficacy among GRP78 binding peptides” value is given as “highest efficacy”.
